Patent US4371544A, “Pharmaceutical composition containing 1,1,3,5-substituted biuret compound” (Taiho Pharmaceutical Company Limited, priority 1979, dated 1983)
Read-outs that look alike come from different tables or passages of the source.

Columns and labels:
[1] = Acute toxicity (oral, mice, 7 days observation); assay type: in vivo; details: mouse, in vivo; oral, male ddy mice, 7 days observation; Δ mark; read-out: 50% lethal dose, LD50
Method in brief: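 Overnight-fasted male ddy mice (20-25 g) received compound orally as a suspension in 0.25% carboxymethylcellulose, observed 7 days. Lethal dose (mg/kg) taken from deaths per mice tested; LD50 given where marked.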

ddy strain of male mice [2] = test: Analgesic activity, acetic acid-induced stretching method; assay type: in vivo, mouse (ddy); details: Mus musculus; for inhibition in vivo at 100 mg/kg: po, read-out: Analgesic activity, acetic acid-induced stretching method, inhibitory ratio; for ED50: oral, Δ mark, range in parentheses
Method in brief: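 Fasted male mice (20-25 g) received test compound orally, usually 100 mg/kg, as a 0.25% carboxymethylcellulose suspension, then 0.2 ml 0.7% acetic acid i.p. 1 hour later. Stretching was scored and activity given as % inhibition; some values are ED50 (mg/kg).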

ddy strain of male mice [3] = test: Analgesic activity, Haffner method (morphine threshold dose, clamp); assay type: in vivo, mouse (ddy); details: Mus musculus; for inhibition in vivo at 100 mg/kg: 100 mg/kg oral, 45 minutes before morphine hydrochloride, read-out: Analgesic activity, Haffner method, inhibitory ratio; for ED50: oral, Δ mark, range in parentheses
Method in brief: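 Fasted male ddy mice weighing 20-25 g were given the test compound orally as a suspension in 0.25% carboxymethylcellulose. After 45 minutes, a threshold dose (1.5-2.5 mg/kg body weight) of morphine hydrochloride was injected subcutaneously, and clamp-induced pain reactions were watched for 1 hour. Analgesic activity was expressed as inhibitory ratio (%) or as ED50.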

[4] = system: Wistar strain of male rats; test: Anti-pyretic activity (dry-yeast-induced fever); assay type: in vivo, rat (Wistar); details: oral (dose not given), up to 4 hours after administration
Method in brief: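 Male Wistar rats (150–180 g), fasted overnight, given 10% dry-yeast suspension subcutaneously (1 ml/100 g). Compound dosed orally as 0.25% CMC suspension 5 h later; body temperature followed, febrile index integrated to 4 h post-dose and expressed as % inhibition.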

[5] = system: Wistar strain of male rats; test: Anti-inflammatory activity (acute carrageenin-induced inflammatory test, hindpaw); assay type: in vivo, rat (Wistar); details: Rattus norvegicus, read-out: Anti-inflammatory activity, inflammation inhibitory ratio
Procedure: Next, several tests for determining the pharmacological properties, in that acute toxicity, anti-pyretic activity, analgesic activity and anti-inflammatory activity of the present 1,1,3,5-substituted biuret compounds of the formula (1) were conducted and the test results are shown in Table (2). In the tests, each compounds to be tested was used as a suspension in 0.25% carboxymethylcellulose solution. Methods for testing are explained as follows:
According to the method of acute carrageenin-induced inflammatory test [Folia Pharmacologia Japonica, Vol. 56, pp. 575 (1960)], the Wistar strain of male rats (body weight, 150-180 g) were used as test animals. The rats were fasted overnight, 100 mg/kg body weight of the test compound was administered orally, then 1 hour after the administration, 0.1 ml of 1% carrageenin solution, as the inflammation inducing agent, was injected subcutaneously to the hindpaw of the rat and the volume of the hindpaw was measured at time sequences, Anti-inflammatory activity of the test compound was calculated as inflammation inhibitory ratio (%) at 3 hours after the injection of inflammation inducing agent.

[6] = 100 mg/kg oral, 3 hours after carrageenin

**Q.** With CCN(C(=O)N(C)C(=O)NC)c1ccccc1 [Compound No. 58, 1-ethyl-3,5-dimethyl-1-phenylbiuret] as the compound, how does the LD50 at 168 h [1] read?
**A.** 1000 mg/kg

**Q.** What about the inhibition in vivo at 100 mg/kg (ddy strain of male mice [2]) of the same compound?
**A.** 75%

**Q.** What about the inhibition in vivo at 100 mg/kg (ddy strain of male mice [3]) of the same compound?
**A.** 62.5%

**Q.** And the “Anti-pyretic activity, inhibitory ratio (febril index)” value [4]?
**A.** 137%

**Q.** What about the inhibition in vivo at 100 mg/kg ([5]; po, 3 h) of the same compound?
**A.** 60%

**Q.** Which LD50 at 168 h [1] does the source give for CC(C)NC(=O)N(C)C(=O)N(C)c1ccccc1 [compound 56, 1,3-Dimethyl-1-phenyl-5-isopropylbiuret] here?
**A.** 1320 mg/kg

**Q.** What about the inhibition in vivo at 100 mg/kg (ddy strain of male mice [2]) of the same compound?
**A.** 25%

**Q.** And the inhibition in vivo at 100 mg/kg (ddy strain of male mice [3])?
**A.** 12.5%

**Q.** And the “Anti-pyretic activity, inhibitory ratio (febril index)” value [4]?
**A.** 65%

**Q.** And the inhibition in vivo at 100 mg/kg ([5]; po, 3 h)?
**A.** 47%

**Q.** Which results are given for CCNC(=O)NC(=O)N(C)c1ccccc1 [compound 50, 1-Methyl-1-phenyl-5-ethylbiuret]?
**A.** LD50 at 168 h [1]: 1960 mg/kg; inhibition in vivo at 100 mg/kg (ddy strain of male mice [2]): 50%; inhibition in vivo at 100 mg/kg (ddy strain of male mice [3]): 37.5%; Anti-pyretic activity, inhibitory ratio (febril index) [4]: 90%; inhibition in vivo at 100 mg/kg [5, 6]: 38%

**Q.** Which LD50 at 168 h [1] does the source give for CCN(C(=O)N(C)C(=O)NC)c1ccccc1Cl [compound 59, 1-Ethyl-1-(2-chlorophenyl)-3,5-dimethylbiuret] here?
**A.** 810 mg/kg

**Q.** What about the inhibition in vivo at 100 mg/kg (ddy strain of male mice [2]) of the same compound?
**A.** 37.5%

**Q.** And the inhibition in vivo at 100 mg/kg (ddy strain of male mice [3])?
**A.** 12.5%

**Q.** What about the “Anti-pyretic activity, inhibitory ratio (febril index)” value [4] of the same compound?
**A.** 64%

**Q.** And the inhibition in vivo at 100 mg/kg ([5]; po, 2 h)?
**A.** 51%

**Q.** Which LD50 at 168 h [1] does the source give for CNC(=O)NC(=O)N(C)c1ccccc1 [Compound No. 49, 1,5-dimethyl-1-phenylbiuret] here?
**A.** 1600 mg/kg

**Q.** And the ED50 (ddy strain of male mice [2])?
**A.** 34 mg/kg

**Q.** And the ED50 (ddy strain of male mice [3])?
**A.** 86 mg/kg

**Q.** And the “Anti-pyretic activity, inhibitory ratio (febril index)” value [4]?
**A.** 84%

**Q.** What about the inhibition in vivo at 100 mg/kg ([5]; po, 3 h) of the same compound?
**A.** 32%

**Q.** Which LD50 at 168 h [1] does the source give for CCN(C(=O)N(C)C(=O)NC)c1ccc(OC)cc1 [Compound No. 61, 1-Ethyl-1-(4-methoxyphenyl)-3,5-dimethylbiuret] here?
**A.** 1250 mg/kg

**Q.** What about the inhibition in vivo at 100 mg/kg (ddy strain of male mice [2]) of the same compound?
**A.** 75%

**Q.** What about the inhibition in vivo at 100 mg/kg (ddy strain of male mice [3]) of the same compound?
**A.** 25%

**Q.** What about the “Anti-pyretic activity, inhibitory ratio (febril index)” value [4] of the same compound?
**A.** 35%

**Q.** And the inhibition in vivo at 100 mg/kg [5, 6]?
**A.** 52%

**Q.** For CNC(=O)N(C)C(=O)N(C)c1ccccc1 [Compound No. 53, 1,3,5-Trimethyl-1-phenylbiuret], which LD50 at 168 h [1] is on record?
**A.** 1350 mg/kg

**Q.** And the ED50 (ddy strain of male mice [2])?
**A.** 68 mg/kg

**Q.** And the ED50 (ddy strain of male mice [3])?
**A.** 135 mg/kg

**Q.** What about the “Anti-pyretic activity, inhibitory ratio (febril index)” value [4] of the same compound?
**A.** 108%

**Q.** What about the inhibition in vivo at 100 mg/kg [5, 6] of the same compound?
**A.** 76%

**Q.** For CCNC(=O)N(C)C(=O)N(C)c1ccccc1 [compound 54, 1,3-Dimethyl-1-phenyl-5-ethylbiuret], which LD50 at 168 h [1] is on record?
**A.** 1350 mg/kg

**Q.** And the inhibition in vivo at 100 mg/kg (ddy strain of male mice [2])?
**A.** 37.5%

**Q.** What about the inhibition in vivo at 100 mg/kg (ddy strain of male mice [3]) of the same compound?
**A.** 75%

**Q.** What about the “Anti-pyretic activity, inhibitory ratio (febril index)” value [4] of the same compound?
**A.** 58%

**Q.** What about the inhibition in vivo at 100 mg/kg [5, 6] of the same compound?
**A.** 54%
